Test results published in patent publication US4329347A, “Cardiotonic and antithrombotic sulfur-containing derivatives of carbostyril” (Boehringer Ingelheim GmbH, priority 1978, dated 1982).
Where two headings read alike, the source gives them in different places.

Key:
[1] = test system: phosphodiesterase (PDE), supernatant of human blood platelets; test: PDE inhibition (3H-cAMP hydrolysis); format: biochemical; details: human blood platelet PDE, 1 μmol/liter 3H-cAMP, pH 7.4, 15 minutes, 37° C.
Experimental: cAMP is hydrolysed to AMP by phosphodiesterase (PDE) from various sources, including blood platelets. This hydrolysis is inhibited by PDE inhibitors according to the concentration.
The phosphodiesterase used was the 10,000×g supernatant of human blood platelets which had been frozen with water and thawed out again.
An amount of 0.3 ml of a mixture which contained 0.1 mole/liter of trihydroxy-aminomethane (pH 7.4), 3 mmole/liter of magnesium chloride, 1 mmole/liter of AMP, 1 μmol/liter of ^3 H-cAMP (specific activity about 10 MBq/μmol), PDE as well as the substance to be tested and water for the control were incubated for 15 minutes at 37° C.
The incubation was stopped by the addition of 0.5 ml of zinc sulfate (0.266 mole/liter) and 0.5 ml of barium hydroxide (0.266 mole/liter), the precipitate was centrifuged and the activity remaining in the supernatant of the unreacted ^3 H-cAMP was determined. From a comparison of the substance preparations and the control preparations, the concentration for a 50% inhibiting activity (IC50) of the respective substance was calculated.

[2] = test system: Platelet Thromboses in the Rat; test: Influence on platelet thromboses in the rat (electrical irritation of a vein); format: in vivo; details: male rats, five animals per dose, 20 minutes observation, vs. untreated group; dose not given
Experimental: Literature: H. Poliwoda, J. Lilli, G. Hagemann, D. Schyma: Z. ges. exp. Med., 145, 252 (1968)
Male rats (body weight between 70 and 90 grams) received an intraperitoneal Nembutal anesthesia (dose: 50 to 60 mg/kg). To avoid hypothermia, they were positioned on a heated test table (about 37° C.). The respiratory passage was held free by insertion of a tracheal cannula.
After a transverse abdominal incision was made, an intestinal loop was exposed and fixed, and a vein, with a diameter of about 300 μ was prepared. A monopolar platinum electrode embedded in glass and having a tip diameter of about 100μ was applied to the vein as an irritating cathode. The indifferent electrode was applied to the same vessel opposite the cathode. The irritation was provoked by 150 volts of direct current for a period of 100 milliseconds. After the irritation, the area of observation was continuously rinsed with warm (37° C.) physiological salt solution.
The formation and growth of the thrombosis was followed under a binocular microscope over a time period of 20 minutes. During the entire period of observation, the percentage of the vessel volume closed by the thrombosis was estimated at different time intervals.
Five animals per dose were used, and the results were averaged.
In the test compound experiments, the average size of the thrombosis in the treated animal group was compared with that of an untreated animal group. The result was given as "percentage reduction of the average thrombosis size." The following table contains the values obtained.

[3] = test system: thrombocyte aggregation in platelet-rich plasma of healthy human donors; test: Thrombocyte aggregation inhibiting activity by the method of Born and Cross (platelet-rich plasma); format: cell-based; details: optical density
Experimental: 1. Determination of the thrombocyte aggregation inhibiting activity by the method of Born and Cross [J. Physiol. 170, 397 (1964)]:
The thrombocyte aggregation was measured in the platelet-rich plasma of healthy human donors. The decrease in optical density was measured and recorded photometrically after the addition of adenosine diphosphate or collagen. From the angle of inclination of the density curve, the rate of aggregation was estimated (Vmax). The optical density was taken as the point on the curve where the most light was transmitted (O.D.).
The EC50 values in the tables indicate the optical density.
Small doses of collagen were chosen, but sufficient to give irreversible aggregation. To provoke maximum aggregation, about 0.01 ml of the collagen solution was added to 1 ml of platelet-rich plasma. (Commercial collagen of Hormonchemie, Munich). The adenosine diphosphate (ADP) doses were chosen to give only the first phase of the BORN curve. The necessary amount of ADP was about 1×10^-6 mol/l. Commercial ADP of Boehringer Mannheim was used.
The substance dose which produced a 50% inhibition of the thrombozytes aggregation (EC50) was determined graphically.

conscious mice = test: Prolongation of the bleeding time (mouse tail); format: in vivo; details: po, 10 mg/kg orally, after 1 hour, compared to control group, read-out: Prolongation of the bleeding time in % after one hour
Experimental: The function of the thrombocytes can be determined by measuring the bleeding time. The normal bleeding time in human beings is in the range of 1 to 3 minutes and needs intact thrombozytes in a sufficient number. If the number of thrombocytes is normal and the bleeding time is prolonged, this signifies a disturbed function of the thrombocytes. This is found in some congenital defects of thrombocyte function (V. Willebrand's disease, for example). If, on the other hand it is the aim to prevent spontaneous aggregation of the thrombocytes and occlusion in the arterial system by antithrombotic drugs, the bleeding time should be prolonged as a consequence. Therefore, using antithrombotic substances, a prolongation of the bleeding time is expected. If the plasma coagulation system is not influenced by such a medicine, coagulation tests will give a normal result.
To measure the bleeding time, 10 mg/kg of the test compound is administered orally to conscious mice. After 1 hour, 0.5 mm of the tip of the mousetail is cut off and droplets of blood are gently removed with filter paper every 30 second. The number of drops of blood give a measure for the bleeding time (5 animals/experiment).
The numbers in the following table represent the prolongation in % compared to the control group.

Acute toxicity, oral = format: in vivo; details: mouse, in vivo; mice, single oral dose, 14 days observation; read-out: Acute Toxicity per os
Experimental: (§1) The acute toxicity of the test compounds was determined on groups of 10 mice each after oral administration of a single dose of 1,000 mg/kg (observation time: 14 days).

mice = test: Acute toxicity, oral; format: in vivo; details: single oral dose of 1,000 mg/kg, 14 days observation
Experimental: as §1

auricles (rat heart) = test: Positive inotropic activity on isolated rat auricles; design: species or system rats; details: 1×10^-5 gm/ml, 30° C., from the starting values, read-out: % Increase in Force of Contraction
Experimental: Rats were anesthetized with ether and subsequently killed by a blow on the neck. After opening the thorax, the heart was removed and both auricles were separated. The auricles were put into an organ bath of 100 ml containing a tyrode solution at a temperature of 30° C. The tyrode solution was infused with carbogen (95% of O2 and 5% of CO2). The spontaneous contractions of the auricles were registered isometrically. The auricles were weighted with 1 gm. The compounds in question were tested on 4 auricles each at 1×10^-5 gm/ml. The alteration of the contraction force was registered in % from the starting values.

[4] = ADP-induced (about 1×10^-6 mol/l), read-out: EC50 (50% inhibition of thrombocyte aggregation), ADP
[5] = collagen-induced, read-out: EC50 (50% inhibition of thrombocyte aggregation), Collagen

Compound | IC50 [1] | Percentage Reduction of the Average Thrombosis Size [2] | EC50 [3, 4] | EC50 [3, 5] | change in vivo at 10 mg/kg (conscious mice) | LD50 at 336 h (Acute toxicity, oral) | animals died (acute toxicity per os) (mice) | activation at 10 µg/mL (auricles (rat heart))
O=c1ccc2cc(OCCCC[S+]([O-])c3ccc(C4CCCCC4)cc3)ccc2[nH]1 (stereo not drawn) [DD, 6-[4-(4-Cyclohexylphenylsulfinyl)-butoxy]-carbostyril] | 0.04 µM | 11% |  |  |  |  |  | 
O=c1ccc2cc(OCCCC[S+]([O-])c3ccccn3)ccc2[nH]1 (stereo not drawn) [JJ, 6-[4-(2-Pyridylsulfinyl)-butoxy]-carbostyril] |  | 29% |  |  |  |  |  | 
O=C1CCc2cc(OCCCC[S+]([O-])C3CCCCC3)ccc2N1 (stereo not drawn) [K, 6-(4-Cyclohexylsulfinyl-butoxy)-3,4-dihydro-carbostyril] | 2.5 µM |  | 12 µM | 4.5 µM | 12% | > 1000 mg/kg | 0 out of 10 animals | 
O=C1CCc2cc(OCCCCS(=O)(=O)c3ccccc3)ccc2N1 [Compound C, 6-(4-Phenylsulfonyl-butoxy)-3,4-dihydro-carbostyril] | 1.5 µM |  | 15 µM | 5 µM | 26% | > 1000 mg/kg | 0 out of 10 animals | 35%
O=C1CCc2cc(OCCCCS(=O)(=O)c3ccccn3)ccc2N1 [F, 6-[4-(2-Pyridyl-sulfonyl)-butoxy]-3,4-dihydro-carbostyril] | 3.8 µM |  | 20 µM | 20 µM | 91% | > 1000 mg/kg | 0 out of 10 animals | 18%
O=C1CCc2cc(OCCCCSc3ccccn3)ccc2N1 [D, 6-[4-(2-Pyridyl-mercapto)-butoxy]-3,4-dihydro-carbostyril] | 1.6 µM |  | > 100 µM | 45 µM | 76% | > 1000 mg/kg | 0 out of 10 animals | 
O=C1CCc2cc(OCCCCSc3ccccc3)ccc2N1 [A, 6-(4-Phenylmercapto-butoxy)-3,4-dihydro-carbostyril] | 0.78 µM |  | > 100 µM | 50 µM | 145% | > 1000 mg/kg | 0 out of 10 animals | 
O=C1CCc2cc(OCCCC[S+]([O-])c3ccc4ccccc4c3)ccc2N1 (stereo not drawn) [L, 6-[4-(2-Naphthyl-sulfinyl)-butoxy]-3,4-dihydro-carbostyril] | 0.14 µM |  | 10 µM | 1 µM | 15% | > 1000 mg/kg | 0 out of 10 animals | 63%
CC(C)(C)c1cc([S+]([O-])CCCCOc2ccc3[nH]c(=O)ccc3c2)cc(C(C)(C)C)c1O (stereo not drawn) [O, 6-[4-(4-Hydroxy-3,5-di-tert. butylphenyl-sulfinyl)-butoxy]-carbostyril] | 0.079 µM | 17% | 0.5 µM | 0.2 µM | 73% | > 1000 mg/kg | 0 out of 10 animals | 
O=C1CCc2cc(OCCCCS(=O)(=O)c3ccc(Cl)c(Cl)c3)ccc2N1 [R, 6-[4-(3,4-Dichlorophenyl-sulfonyl)-butoxy]-3,4-dihydro-carbostyril] | 1.8 µM |  | 25 µM | 1.5 µM | 30% | > 1000 mg/kg | 0 out of 10 animals | 
O=C1CCc2cc(OCCCC[S+]([O-])Cc3ccccc3)ccc2N1 (stereo not drawn) [H, 6-(4-Benzylsulfinyl-butoxy)-3,4-dihydro-carbostyril] | 1.6 µM |  | 14 µM | 2.5 µM | 29% | > 1000 mg/kg | 0 out of 10 animals | 
O=c1ccc2cc(OCCCC[S+]([O-])c3ccc(Cl)c(Cl)c3)ccc2[nH]1 (stereo not drawn) [P, 6-[4-(3,4-Dichlorophenyl-sulfinyl)-butoxy]-carbostyril] | 0.22 µM | 15% | 1.8 µM | 0.2 µM | 12% | > 1000 mg/kg | 0 out of 10 animals | 
Cc1cc(=O)[nH]c2ccc(OCCCC[S+]([O-])c3ccccn3)cc12 (stereo not drawn) [KK, 4-Methyl-6-[4-(2-pyridylsulfinyl)-butoxy]-carbostyril] |  | 17% |  |  |  |  |  | 
O=C1CCc2cc(OCC[S+]([O-])c3ccccc3)ccc2N1 (stereo not drawn) [G, 6-(2-Phenylsulfinyl-ethoxy)-3,4-dihydro-carbostyril] | 3.4 µM |  | 17 µM | 3.5 µM | 5% | > 1000 mg/kg | 0 out of 10 animals | 
O=C1CCc2cccc(OCCCCSc3ccccc3)c2N1 [II, 8-(4-Phenylmercapto-butoxy)-3,4-dihydro-carbostyril] |  | 4% |  |  |  |  |  | 
O=C1CCc2cc(OCCCC[S+]([O-])c3cc(Cl)ccc3Cl)ccc2N1 (stereo not drawn) [S, 6-[4-(2,5-Dichlorophenyl-sulfinyl)-butoxy]-3,4-dihydro-carbostyril] | 2.1 µM |  | 10 µM | 1 µM |  | > 1000 mg/kg | 0 out of 10 animals | 83%
O=c1ccc2cc(OCCCC[S+]([O-])c3ccccc3)ccc2[nH]1 (stereo not drawn) [N, 6-(4-Phenylsulfinyl-butoxy)-carbostyril] | 0.47 µM | 24% | 3 µM | 0.6 µM |  |  |  | 
CC(C)(C)[S+]([O-])CCCCOc1ccc2c(c1)CCC(=O)N2 (stereo not drawn) [HH, 6-(4-tert.Butylsulfinyl-butoxy)-3,4-dihydrocarbostyril] |  | 19% |  |  |  |  |  | 
